From PubChem BioAssay (NCI)
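Following 48 hours of exposure in 96-well plates, responses at five concentrations were used to interpolate endpoints linearly. The concentration for 50% growth inhibition is given as GI50. The concentration for full growth arrest is given as TGI.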

Key:
Experiment in all cases: inhibition of tumour cell growth, NCI panel, 48 h
SW-620 colon = system: SW-620 colon
IGROV1 ovarian = system: IGROV1 ovarian
COLO 205 colon = system: COLO 205 colon
CAKI-1 renal = system: CAKI-1 renal
M19-MEL melanoma = system: M19-MEL melanoma
XF 498 CNS = system: XF 498 CNS
LOX IMVI melanoma = system: LOX IMVI melanoma
NCI-H23 lung = system: NCI-H23 lung
KM20L2 colon = system: KM20L2 colon
LXFL 529 NSCLC = system: LXFL 529 NSCLC

| SMILES | TGI (SW-620 colon) | TGI (IGROV1 ovarian) | TGI (COLO 205 colon) | TGI (CAKI-1 renal) | TGI (M19-MEL melanoma) | TGI (XF 498 CNS) | TGI (LOX IMVI melanoma) | TGI (NCI-H23 lung) | TGI (KM20L2 colon) | TGI (LXFL 529 NSCLC) | GI50 (SW-620 colon) | GI50 (IGROV1 ovarian) | GI50 (COLO 205 colon) | GI50 (CAKI-1 renal) | GI50 (LOX IMVI melanoma) | GI50 (NCI-H23 lung) |
| --- | --- | --- | --- | --- | --- | --- | --- | --- | --- | --- | --- | --- | --- | --- | --- | --- |
| CC(/C=C/C=C\C=C\C=C(/C)C(=O)NC(C)CO)=C\C(C)C(O)/C(C)=C/C(C)CCc1ccccc1 (stereo not drawn) | 28.4 µM | 20.1 µM | 26.8 µM | 54.1 µM | 19.4 µM | 22 µM | 16.5 µM | 17 µM | 25.1 µM | 18.7 µM |  |  |  |  |  |  |
| CN1C(=O)C(C)(C)NS1(=O)=O | > 100 µM | > 100 µM | > 100 µM | > 100 µM | > 100 µM | > 100 µM | > 100 µM | > 100 µM | > 100 µM | > 100 µM |  |  |  |  |  |  |
| CCOc1cccc2sc(N)nc12 | > 100 µM | > 100 µM | > 100 µM | > 100 µM | > 100 µM |  | > 100 µM | > 100 µM | > 100 µM | > 100 µM |  |  |  |  |  |  |
| CCOC(=O)NC(=O)c1cn(CC(=O)NCC(=O)NCC(=O)N2CCN(CCn3c(C)nc(C(N)=O)c3N)CC2)c(=O)[nH]c1=O | > 100 µM | > 100 µM | > 100 µM | > 100 µM | > 100 µM | > 100 µM | > 100 µM | > 100 µM | > 100 µM | > 100 µM |  |  |  |  |  |  |
| CC1(OCc2ccccc2)C(=O)N2C1N(C(=O)OCc1ccccc1)CC2(C)C (stereo not drawn) | > 100 µM | > 100 µM | > 100 µM |  | > 100 µM | 75 µM | > 100 µM | > 100 µM | > 100 µM | > 100 µM |  |  |  |  |  |  |
| CN(C(=N)c1ccccc1)c1ccccc1 | > 100 µM | > 100 µM | > 100 µM |  | > 100 µM |  | > 100 µM | > 100 µM | > 100 µM | > 100 µM |  |  |  |  |  |  |
| O=C1C2c3[nH]c4ccccc4c3C3CCC(c4ccccc4)CC3C2C(=O)N1c1ccccc1 (stereo not drawn) | > 100 µM | > 100 µM | > 100 µM |  | > 100 µM | > 100 µM | > 100 µM | > 100 µM |  | > 100 µM |  |  |  |  |  |  |
| Clc1cc(Cl)cc(C2SCc3nc4ccccc4n32)c1 (stereo not drawn) | 33.6 µM |  | 33.9 µM | 44.2 µM |  |  |  | 45.4 µM |  | 36.3 µM |  |  |  |  |  |  |
| N#CC1=C(c2ccccc2)NN(Cc2ccccc2)C(c2ccc(Cl)cc2)CC1=O (stereo not drawn) | 54.8 µM |  | > 100 µM | 76.7 µM |  | 50.1 µM | 41.8 µM | > 100 µM | 75.8 µM | > 100 µM |  |  |  |  |  |  |
| NC(N)=NS(=O)(=O)c1ccc(NC(=O)c2cccn3c(=O)c4ccccc4nc23)cc1 | > 100 µM | > 100 µM | 34 µM | > 100 µM | > 100 µM | 76.8 µM | > 100 µM | > 100 µM | 63.7 µM | > 100 µM |  |  |  |  |  |  |
| C/C(=N\N)C(CN1CCCCC1)C(c1ccccc1)c1c(O)c2ccccc2oc1=O (stereo not drawn) | > 100 µM | > 100 µM | > 100 µM | > 100 µM | > 100 µM | > 100 µM | > 31.6 µM | > 100 µM | > 100 µM | > 100 µM |  |  |  |  |  |  |
| O=C1C[C@@H]2[C@@H](C=CC23CC3)N1O | > 100 µM | > 100 µM | > 100 µM | > 100 µM | > 100 µM |  | > 100 µM | > 100 µM | > 100 µM | > 100 µM |  |  |  |  |  |  |
| COc1cccc(-c2cc(=O)c3cc(C)c(C)c(C(=O)O)c3o2)c1 | > 100 µM | > 100 µM | > 100 µM |  | > 100 µM | > 100 µM | > 100 µM | > 100 µM | > 100 µM | > 100 µM |  |  |  |  |  |  |
| CC(C)(C)c1cc(O)c2c(c1O)C(=O)CCC2 | > 100 µM | > 100 µM | > 100 µM | 82.3 µM | 84.9 µM | 71.2 µM | > 100 µM | > 100 µM | > 100 µM | > 100 µM |  |  |  |  |  |  |
| Cc1cc(NCCCNc2ccnc3cc(Cl)ccc23)nc(Nc2ccc(C(=O)N3CCCCC3)cc2)n1 | 4.52 µM | 12.7 µM | 3.62 µM | 7.38 µM |  |  | 3.57 µM | 18.6 µM |  |  | 2120 nM | 3.09 µM | 1800 nM | 2510 nM | 1820 nM | 4.38 µM |
| COC(=O)CCC(=O)Nc1cccc(C(F)(F)F)c1 | > 100 µM | > 100 µM | > 100 µM | > 100 µM | > 100 µM | > 100 µM | > 100 µM | > 100 µM | > 100 µM | > 100 µM |  |  |  |  |  |  |
| COc1cc(-c2nn(-c3ccc(NC(=O)Nc4ccc(Cl)c(C(F)(F)F)c4)cc3)cc2-c2ccncc2)ccc1Cl | 3.58 µM | 6.07 µM | 3.29 µM | 3.54 µM |  |  | 2.78 µM | 5.79 µM |  |  | 1820 nM | 2.06 µM | 1670 nM | 1290 nM | 1430 nM | 1.98 µM |
| C=C(C)[C@@H]1CC[C@]2(C(=O)N3CCN(C)CC3)CC[C@]3(C)[C@H](CC[C@@H]4[C@@]5(C)C/C(=C/c6ccncc6)[C@H](O)C(C)(C)[C@@H]5CC[C@]43C)[C@@H]12 | 17.7 µM | 37.7 µM | 23 µM | 25.5 µM |  |  | 17.3 µM | > 100 µM |  |  | 3750 nM | 6.62 µM | 3160 nM | 5820 nM | 4010 nM | 8.73 µM |
| COc1ccc(C(=C(C#N)C#N)c2ccc(OC)cc2)cc1 | > 100 µM | > 100 µM | > 100 µM | > 100 µM |  |  | > 100 µM | > 100 µM | > 100 µM | > 100 µM |  |  |  |  |  |  |
| C=C(c1ccccc1)[C@@]1(O)CCCC[C@H]1NC(c1ccccc1)c1ccccc1 | 32.8 µM | 42.4 µM | 28 µM | 21.4 µM | 28.3 µM |  | 21.9 µM | 28.7 µM | 43.5 µM | 23.9 µM |  |  |  |  |  |  |
